Measurements taken from ChEMBL document CHEMBL4304804, “Synthesis and biological evaluation of calycanthaceous alkaloid analogs” (Bioorg Med Chem, 2019).
Converted amounts (≈) assume the structure as drawn. The source made the active and inactive calls. The rule behind the calls is not given here.

Tests used:
Candida tropicalis = test: Antifungal activity against Candida tropicalis assessed as reduction in fungal cell growth incubated for 48 hrs by serial dilution method; format: functional
[1] = test system: Fusarium oxysporum f. sp. vasinfectum; test: Antifungal activity against Fusarium oxysporum sp. vasinfectum assessed as reduction in fungal cell growth incubated for 48 hrs by serial dilution method; format: functional
Staphylococcus aureus = test: Antibacterial activity against Staphylococcus aureus assessed as reduction in bacterial cell growth incubated for 24 hrs by filter paper assay; format: functional
Aspergillus niger = test: Antifungal activity against Aspergillus niger assessed as reduction in fungal cell growth incubated for 48 hrs by serial dilution method; format: functional
[2] = test system: Colletotrichum orbiculare; test: Antifungal activity against Colletotrichum orbiculare assessed as reduction in fungal cell growth incubated for 48 hrs by serial dilution method; format: functional
Escherichia coli = test: Antibacterial activity against Escherichia coli assessed as reduction in bacterial cell growth incubated for 24 hrs by filter paper assay; format: functional
Verticillium dahliae = test: Antifungal activity against Verticillium dahliae assessed as reduction in fungal cell growth incubated for 48 hrs by serial dilution method; format: functional
Curvularia lunata = test: Antifungal activity against Curvularia lunata assessed as reduction in fungal cell growth incubated for 48 hrs by serial dilution method; format: functional
Pseudomonas aeruginosa = test: Antibacterial activity against Pseudomonas aeruginosa assessed as reduction in bacterial cell growth incubated for 24 hrs by filter paper assay; format: functional
Acetylcholinesterase = Acetylcholinesterase (Electrophorus electricus, UniProt O42275); test: Inhibition of electric eel AChE by Ellman's colorimetry
Fusarium oxysporum = test: Antifungal activity against Fusarium oxysporum assessed as reduction in fungal cell growth incubated for 48 hrs by serial dilution method; format: functional
Bacillus cereus = test: Antibacterial activity against Bacillus cereus assessed as reduction in bacterial cell growth incubated for 24 hrs by filter paper assay; format: functional
Penicillium citrinum = test: Antifungal activity against Penicillium citrinum assessed as reduction in fungal cell growth incubated for 48 hrs by serial dilution method; format: functional
Candida = test: Antifungal activity against […] assessed as reduction in fungal cell growth incubated for 48 hrs by serial dilution method; format: functional
Aspergillus flavus = test: Antifungal activity against Aspergillus flavus assessed as reduction in fungal cell growth incubated for 48 hrs by serial dilution method; format: functional
Cytospora = test: Antifungal activity against Cytospora juglandis assessed as reduction in fungal cell growth incubated for 48 hrs by serial dilution method; format: functional
Cryptococcus neoformans = test: Antifungal activity against Cryptococcus neoformans assessed as reduction in fungal cell growth incubated for 48 hrs by serial dilution method; format: functional
Ralstonia solanacearum = test: Antibacterial activity against Ralstonia solanacearum assessed as reduction in bacterial cell growth incubated for 24 hrs by filter paper assay; format: functional

Acetylcholinesterase, sequence (O42275 whole entry): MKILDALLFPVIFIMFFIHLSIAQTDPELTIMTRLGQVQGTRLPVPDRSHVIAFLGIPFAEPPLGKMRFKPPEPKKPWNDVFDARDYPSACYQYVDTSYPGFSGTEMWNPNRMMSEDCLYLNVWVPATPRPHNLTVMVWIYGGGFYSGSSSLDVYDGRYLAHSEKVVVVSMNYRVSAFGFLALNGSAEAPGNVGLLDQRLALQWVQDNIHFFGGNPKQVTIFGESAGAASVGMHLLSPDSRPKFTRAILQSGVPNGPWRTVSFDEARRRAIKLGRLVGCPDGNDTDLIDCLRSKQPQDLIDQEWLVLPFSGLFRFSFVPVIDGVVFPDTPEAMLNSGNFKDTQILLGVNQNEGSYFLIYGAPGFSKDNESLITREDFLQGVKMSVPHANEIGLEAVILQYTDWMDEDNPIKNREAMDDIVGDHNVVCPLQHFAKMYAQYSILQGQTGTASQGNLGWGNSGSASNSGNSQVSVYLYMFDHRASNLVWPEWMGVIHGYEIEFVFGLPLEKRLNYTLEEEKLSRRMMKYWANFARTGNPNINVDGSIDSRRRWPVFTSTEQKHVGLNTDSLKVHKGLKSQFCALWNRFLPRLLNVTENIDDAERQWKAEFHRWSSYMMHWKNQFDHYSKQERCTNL

SMILES: CCCCC(=O)N1CCC2(Cc3cccc(C)c3)c3ccccc3N(Cc3cccc(C)c3)C12 (centres undefined)
- MIC (Candida tropicalis): 250 µg/mL (≈ 552 µM)
- MIC [1]: inactive
- MIC (Staphylococcus aureus): 250 µg/mL (≈ 552 µM)
- MIC (Aspergillus niger): 250 µg/mL (≈ 552 µM)
- MIC [2]: inactive
- MIC (Escherichia coli): 250 µg/mL (≈ 552 µM)
- MIC (Verticillium dahliae): 31.2 µg/mL (≈ 69 µM)
- MIC (Curvularia lunata): inactive
- MIC (Pseudomonas aeruginosa): 125 µg/mL (≈ 276 µM)
- IC50 (Acetylcholinesterase): 0.133 µM
- MIC (Fusarium oxysporum): 125 µg/mL (≈ 276 µM)
- MIC (Bacillus cereus): 250 µg/mL (≈ 552 µM)
- MIC (Penicillium citrinum): 250 µg/mL (≈ 552 µM)
- MIC (Candida): 250 µg/mL (≈ 552 µM)
- MIC (Aspergillus flavus): 250 µg/mL (≈ 552 µM)
- MIC (Cytospora): 250 µg/mL (≈ 552 µM)
- MIC (Cryptococcus neoformans): inactive
- MIC (Ralstonia solanacearum): 250 µg/mL (≈ 552 µM)

SMILES: Cc1cccc(CN2c3ccccc3C3(Cc4cccc(C)c4)CCN(C(=O)C(C)C)C23)c1 (centres undefined)
- MIC (Candida tropicalis): 250 µg/mL (≈ 570 µM)
- MIC [1]: inactive
- MIC (Staphylococcus aureus): inactive
- MIC (Aspergillus niger): 250 µg/mL (≈ 570 µM)
- MIC [2]: 250 µg/mL (≈ 570 µM)
- MIC (Escherichia coli): 250 µg/mL (≈ 570 µM)
- MIC (Verticillium dahliae): 250 µg/mL (≈ 570 µM)
- MIC (Curvularia lunata): inactive
- MIC (Pseudomonas aeruginosa): inactive
- IC50 (Acetylcholinesterase): 13.6 µM
- MIC (Fusarium oxysporum): 125 µg/mL (≈ 285 µM)
- MIC (Bacillus cereus): 15.6 µg/mL (≈ 35.6 µM)
- MIC (Penicillium citrinum): inactive
- MIC (Candida): 250 µg/mL (≈ 570 µM)
- MIC (Aspergillus flavus): 250 µg/mL (≈ 570 µM)
- MIC (Cytospora): 250 µg/mL (≈ 570 µM)
- MIC (Cryptococcus neoformans): inactive
- MIC (Ralstonia solanacearum): inactive

SMILES: COc1ccc(C(=O)N2CCC3(Cc4ccccc4C)c4ccccc4N(Cc4ccccc4C)C23)cc1 (centres undefined)
- MIC (Candida tropicalis): inactive
- MIC [1]: inactive
- MIC (Staphylococcus aureus): inactive
- MIC (Aspergillus niger): 250 µg/mL (≈ 497 µM)
- MIC [2]: inactive
- MIC (Escherichia coli): inactive
- MIC (Verticillium dahliae): 250 µg/mL (≈ 497 µM)
- MIC (Curvularia lunata): inactive
- MIC (Pseudomonas aeruginosa): inactive
- IC50 (Acetylcholinesterase): 126 µM
- MIC (Fusarium oxysporum): 250 µg/mL (≈ 497 µM)
- MIC (Bacillus cereus): inactive
- MIC (Penicillium citrinum): inactive
- MIC (Candida): inactive
- MIC (Aspergillus flavus): 250 µg/mL (≈ 497 µM)
- MIC (Cytospora): 250 µg/mL (≈ 497 µM)
- MIC (Cryptococcus neoformans): inactive
- MIC (Ralstonia solanacearum): inactive

SMILES: CCCC(=O)N1CCC2(Cc3cccc(C)c3)c3ccccc3N(Cc3cccc(C)c3)C12 (centres undefined)
- MIC (Candida tropicalis): 125 µg/mL (≈ 285 µM)
- MIC [1]: inactive
- MIC (Staphylococcus aureus): 250 µg/mL (≈ 570 µM)
- MIC (Aspergillus niger): 125 µg/mL (≈ 285 µM)
- MIC [2]: 250 µg/mL (≈ 570 µM)
- MIC (Escherichia coli): 250 µg/mL (≈ 570 µM)
- MIC (Verticillium dahliae): 62.5 µg/mL (≈ 142 µM)
- MIC (Curvularia lunata): inactive
- MIC (Pseudomonas aeruginosa): 250 µg/mL (≈ 570 µM)
- IC50 (Acetylcholinesterase): 6.52 µM
- MIC (Fusarium oxysporum): 125 µg/mL (≈ 285 µM)
- MIC (Bacillus cereus): 250 µg/mL (≈ 570 µM)
- MIC (Penicillium citrinum): inactive
- MIC (Candida): 250 µg/mL (≈ 570 µM)
- MIC (Aspergillus flavus): 250 µg/mL (≈ 570 µM)
- MIC (Cytospora): 62.5 µg/mL (≈ 142 µM)
- MIC (Cryptococcus neoformans): inactive
- MIC (Ralstonia solanacearum): 250 µg/mL (≈ 570 µM)

SMILES: CCCCCC(=O)N1CCC2(Cc3cccc(C)c3)c3ccccc3N(Cc3cccc(C)c3)C12 (centres undefined)
- MIC (Candida tropicalis): 250 µg/mL (≈ 536 µM)
- MIC [1]: inactive
- MIC (Staphylococcus aureus): inactive
- MIC (Aspergillus niger): 250 µg/mL (≈ 536 µM)
- MIC [2]: 250 µg/mL (≈ 536 µM)
- MIC (Escherichia coli): inactive
- MIC (Verticillium dahliae): 15.6 µg/mL (≈ 33.5 µM)
- MIC (Curvularia lunata): inactive
- MIC (Pseudomonas aeruginosa): 125 µg/mL (≈ 268 µM)
- IC50 (Acetylcholinesterase): 142 µM
- MIC (Fusarium oxysporum): 125 µg/mL (≈ 268 µM)
- MIC (Bacillus cereus): 250 µg/mL (≈ 536 µM)
- MIC (Penicillium citrinum): 250 µg/mL (≈ 536 µM)
- MIC (Candida): 250 µg/mL (≈ 536 µM)
- MIC (Aspergillus flavus): 250 µg/mL (≈ 536 µM)
- MIC (Cytospora): 125 µg/mL (≈ 268 µM)
- MIC (Cryptococcus neoformans): inactive
- MIC (Ralstonia solanacearum): 250 µg/mL (≈ 536 µM)

SMILES: CC(=O)N1CCCC2(O)c3ccccc3N(C)C12 (centres undefined)
- MIC (Candida tropicalis): inactive
- MIC [1]: inactive
- MIC (Staphylococcus aureus): 250 µg/mL (≈ 1010 µM)
- MIC (Aspergillus niger): inactive
- MIC [2]: inactive
- MIC (Escherichia coli): inactive
- MIC (Verticillium dahliae): inactive
- MIC (Curvularia lunata): inactive
- MIC (Pseudomonas aeruginosa): 250 µg/mL (≈ 1010 µM)
- IC50 (Acetylcholinesterase): 1.22 µM
- MIC (Fusarium oxysporum): inactive
- MIC (Bacillus cereus): inactive
- MIC (Penicillium citrinum): inactive
- MIC (Candida): inactive
- MIC (Aspergillus flavus): inactive
- MIC (Cytospora): inactive
- MIC (Cryptococcus neoformans): inactive
- MIC (Ralstonia solanacearum): 250 µg/mL (≈ 1010 µM)

SMILES: Cc1cccc(CN2c3ccccc3C3(Cc4cccc(C)c4)CCN(C(=O)CCc4ccccc4)C23)c1 (centres undefined)
- MIC (Candida tropicalis): inactive
- MIC [1]: 62.5 µg/mL (≈ 125 µM)
- MIC (Staphylococcus aureus): inactive
- MIC (Aspergillus niger): inactive
- MIC [2]: inactive
- MIC (Escherichia coli): inactive
- MIC (Verticillium dahliae): inactive
- MIC (Curvularia lunata): inactive
- MIC (Pseudomonas aeruginosa): inactive
- IC50 (Acetylcholinesterase): 0.00399 µM
- MIC (Fusarium oxysporum): 250 µg/mL (≈ 499 µM)
- MIC (Bacillus cereus): inactive
- MIC (Penicillium citrinum): inactive
- MIC (Candida): inactive
- MIC (Aspergillus flavus): 250 µg/mL (≈ 499 µM)
- MIC (Cytospora): 250 µg/mL (≈ 499 µM)
- MIC (Cryptococcus neoformans): inactive
- MIC (Ralstonia solanacearum): inactive

SMILES: Cc1cccc(CN2c3ccccc3C3(Cc4cccc(C)c4)CCN(C(=O)c4ccccc4C)C23)c1 (centres undefined)
- MIC (Candida tropicalis): 250 µg/mL (≈ 514 µM)
- MIC [1]: 125 µg/mL (≈ 257 µM)
- MIC (Staphylococcus aureus): inactive
- MIC (Aspergillus niger): 250 µg/mL (≈ 514 µM)
- MIC [2]: 250 µg/mL (≈ 514 µM)
- MIC (Escherichia coli): inactive
- MIC (Verticillium dahliae): 7.81 µg/mL (≈ 16 µM)
- MIC (Curvularia lunata): 62.5 µg/mL (≈ 128 µM)
- MIC (Pseudomonas aeruginosa): inactive
- IC50 (Acetylcholinesterase): 112 µM
- MIC (Fusarium oxysporum): 125 µg/mL (≈ 257 µM)
- MIC (Bacillus cereus): 125 µg/mL (≈ 257 µM)
- MIC (Penicillium citrinum): inactive
- MIC (Candida): 250 µg/mL (≈ 514 µM)
- MIC (Aspergillus flavus): 250 µg/mL (≈ 514 µM)
- MIC (Cytospora): 125 µg/mL (≈ 257 µM)
- MIC (Cryptococcus neoformans): inactive
- MIC (Ralstonia solanacearum): 125 µg/mL (≈ 257 µM)
